Results published in US20250051350A1, “Dihydroartemisinin derivatives and the treatment of fibrotic diseases” (GreenStone Biosciences, Inc., priority 2023, published 2025).

Legend:
[1] = Intravenous and oral pharmacokinetics in mice; assay type: in vivo; conditions: male C57BL/6J mice; for IV AUC0-last / IV Clearance / IV T1/2 / IV VD,ss / PO AUC0-last / PO T1/2: plasma; for IV AUC0-last: test concentration or dose not given here; for PO AUC0-last: test concentration or dose not given here
Description: The intravenous (IV) and oral (PO) pharmacokinetics of the PT compounds were measured in 6-10 week-old male C57BL/6J mice, using three mice/group. The test compounds were formulated in an appropriate water-based vehicle to give a clear solution for IV administration, or a clear solution or uniform suspension for PO administration. Animals were dosed within 4 hours of the preparation of the formulations; with the dose volume being determined by the animal's body weight measured on the morning of the dosing day. Blood samples (about 25 μL per time point) were taken at 5 and 15 minutes and 1, 3, and 5 hours after dosing, into pre-chilled EDTA-K2 tubes and kept on wet ice until centrifugation. The tubes were centrifuged at 3200×g at about 4° C. for 10 minutes, and the plasma analyzed by LC-MS/MS.

in vitro = in vitro ADME; conditions: for fraction unbound: plasma
Description: Plasma protein binding assays were conducted in triplicate for compounds PT-2, PT-14, PT-28, and PT-30, with artesunate, DHA, and warfarin as comparators.

[2] = test system: Induced pluripotent stem cell-derived cardiac fibroblasts (ACTA2-GFP); assay: Antifibrotic effects in TGF-β-activated iPSC-derived cardiac fibroblasts (ACTA2-GFP fluorescence); assay type: cell-based; conditions: activated with TGF-β, simultaneous treatment, 48 hours, ACTA2-GFP fluorescence; read-out: IC50, reduction in fluorescence
From the text: Induced pluripotent stem cell-derived cardiac fibroblasts were constructed containing a fusion of the alpha-smooth muscle actin to the green fluorescent protein (ACTA2-GFP) construct. ACTA2 is a myofibroblast marker, such that the fibroblasts fluoresce with an intensity dependent on the extent of fibrosis.

recovery (in vitro; human) [%]	fraction unbound (in vitro; human)	recovery (in vitro; mouse) [%]	fraction unbound (in vitro; mouse)	SMILES	IV AUC0-last [1] [ng·h/mL]	IV Clearance [1] [mL/min/kg]	IV T1/2 [1] [min]	IV VD,ss [1] [L/kg]	PO Bioavailability [1] [%]	PO AUC0-last [1] [ng·h/mL]	PO T1/2 [1] [min]	IC50 [2] [µM]
				CC1CCC2C(C)C(OC(=O)N(C)CCO)OC3OC4(C)CCC1C32OO4 (stereo not drawn) [PT-20, DHA (2-hydroxyethyl)(methyl)carbamate]	2400	69	14.4	0.8	73	17700	31.8	
91.1	0.003	94.5	0.007	CC(=O)CC(c1ccccc1)c1c(O)c2ccccc2oc1=O (stereo not drawn) [warfarin]								
				CC(CO)C(=O)OC1OC2OC3(C)CCC4C(C)CCC(C1C)C24OO3 (stereo not drawn) [PT-1, DHA 3-hydroxy-2-methylpropionate]	100	1280	7.8	9.0	1.3	20	22.2	2.3
				CC1CCC2C(C)C(OC(=O)N3CC(C)(C(=O)O)C3)OC3OC4(C)CCC1C32OO4 (stereo not drawn) [PT-25, DHA 3-carboxy-3-methylazetidine-1-carboxylate]	2200	74	16.2	1.3	17	3700	113	
				CC1CCC2C(C)C(OC(=O)N3CC(O)C3)OC3OC4(C)CCC1C32OO4 (stereo not drawn) [PT-13, DHA 3-hydroxyazetidine-1-carboxylate]	2200	76	7.2	0.9	64	14100	41.4	2.6
				CC1CCC2C(C)C(OC(=O)N3CC(C)(C(N)=O)C3)OC3OC4(C)CCC1C32OO4 (stereo not drawn) [PT-27, DHA 3-methyl-3-carbamoylazetidine-1-carboxylate]	3300	47	15	1.0	41	14400	78	
				CC1CCC2C(C)C(OC(=O)N3CC(C)(N)C3)OC3OC4(C)CCC1C32OO4 (stereo not drawn) [PT-24, DHA 3-amino-3-methylazetidine-1-carboxylate]	2200	77	15.6	2.2	123	24300	67.2	
